Entries after “also recorded” stand apart in the source; their conditions may differ. Read-outs that look alike come from different tables or passages of the source.
Legend:
CYP1A = target: T1, CYP1A (Homo sapiens, UniProt P05177); test: Inhibition mode on CYP1A-catalyzed phenacetin O-deethylation in HLMs (Lineweaver-Burk and secondary plot); assay type: in vitro ADME; conditions: for inhibition mechanism on CYP1A in HLMs: pooled HLMs, phenacetin O-deethylation, Lineweaver-Burk plot / IC50 shift
T1 sequence (P05177 2-516): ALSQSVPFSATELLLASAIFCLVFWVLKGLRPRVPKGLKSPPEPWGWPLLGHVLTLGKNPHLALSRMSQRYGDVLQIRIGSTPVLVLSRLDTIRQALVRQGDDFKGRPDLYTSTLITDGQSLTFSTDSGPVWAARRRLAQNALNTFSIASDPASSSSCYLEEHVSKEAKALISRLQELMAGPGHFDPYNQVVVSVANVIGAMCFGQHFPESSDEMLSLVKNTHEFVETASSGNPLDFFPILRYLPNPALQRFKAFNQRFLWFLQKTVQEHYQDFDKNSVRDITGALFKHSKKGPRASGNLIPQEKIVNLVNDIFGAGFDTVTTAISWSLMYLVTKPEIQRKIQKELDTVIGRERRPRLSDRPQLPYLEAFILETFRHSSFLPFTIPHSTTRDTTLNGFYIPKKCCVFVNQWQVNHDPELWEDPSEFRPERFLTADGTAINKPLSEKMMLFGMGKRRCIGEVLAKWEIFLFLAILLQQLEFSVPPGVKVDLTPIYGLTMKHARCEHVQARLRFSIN
Method: To characterize the inhibition mode on CYP1A by bakuchicin, 0.5 mg/mL of HLMs was incubated with bakuchicin at 0, 0.2, 0.4, and 0.8 μM in 0.1 M potassium phosphate buffer (pH 7.4) for 60 min at 37°C. Those were terminated by adding 100 μL acetonitrile containing 0.1% formic acid and 2.5 μL of internal standard solution (5 μM reserpine) in methanol. After mixing and centrifuging at 13,000 ×g for 12 min, a 5 μL aliquot was injected onto a C18 column for LC-MS/MS analysis. Phenacetin was used as a probe substrate at 20, 40, or 80 μM. The inhibition pattern was investigated by Michaelis-Menten and its secondary plotting.
All measurements were performed using LC-MS/MS in multiple reaction monitoring mode. LC-MS/MS was performed using an Accela™ LC system coupled to a TSQ Vantage triple quadrupole mass spectrometer (Thermo Fisher Scientific Inc., USA) equipped with a HESI-II Spray source. Electrospray ionization was performed in positive mode at a spray voltage of 3,500 V (except for the detection of 6-hydroxy chlorzoxazone). Nitrogen was used as a sheath and auxiliary gas at optimum values of 45 and 20 (arbitrary units), respectively. Vaporizer and capillary temperatures were 150 and 300°C, respectively. For LC analysis an Inertsil® ODS-2 (3 μm, 2.1 × 150 mm) column (GL Sciences Inc., Torrance, CA) was used. The mobile phase consisted of acetonitrile (mobile phase A) and water (mobile phase B), both of which contained 0.1% formic acid, at a flow rate of 0.22 mL/min at 30°C.
All incubations were performed in duplicate, and data are presented as means. IC50 values (the concentration of inhibitor causing a 50% inhibition in enzyme activity) were obtained using percent activity versus log[I] concentration plots. Kinetic parameters were estimated by curve fitting using SigmaPlot (version 12.0, Systat Software, Inc.).

CYP3A4 = target: T2, CYP3A4 (Homo sapiens, UniProt P08684); test: CYP inhibition, cocktail of probe substrates in pooled human liver microsomes: midazolam 1'-hydroxylation; assay type: in vitro ADME; conditions: pooled HLMs, substrate 2.5 μM
T2 construct: each reaction was performed with 0.5 mg/mL pooled human liver microsomes; tissue Corning Gentest BD UltraPool HLM 150; host or cells: pooled human liver microsomes
T2 sequence (P08684 whole entry): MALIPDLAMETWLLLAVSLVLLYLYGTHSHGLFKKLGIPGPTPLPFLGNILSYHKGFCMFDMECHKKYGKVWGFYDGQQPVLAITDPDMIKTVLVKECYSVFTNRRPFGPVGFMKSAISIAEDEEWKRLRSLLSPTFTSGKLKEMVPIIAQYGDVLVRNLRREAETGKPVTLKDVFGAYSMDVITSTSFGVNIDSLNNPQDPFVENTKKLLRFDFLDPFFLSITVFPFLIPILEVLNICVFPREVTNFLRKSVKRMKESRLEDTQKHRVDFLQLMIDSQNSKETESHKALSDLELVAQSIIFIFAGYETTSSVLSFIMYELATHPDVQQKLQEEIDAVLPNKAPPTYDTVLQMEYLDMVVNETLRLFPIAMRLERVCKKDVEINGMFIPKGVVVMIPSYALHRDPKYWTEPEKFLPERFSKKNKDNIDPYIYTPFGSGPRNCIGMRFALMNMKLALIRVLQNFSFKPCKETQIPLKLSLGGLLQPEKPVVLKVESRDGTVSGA

Ki at 60 min (CYP1A; human, pooled human liver microsomes, pH 7.4, probe phenacetin (O-deethylation), phenacetin 20, 40, 80 μM, 60 min incubation): 0.09 µM
inhibition mechanism on CYP1A in HLMs (CYP1A): reversible competitive inhibitor
IC50 (CYP3A4; 15 min preincubation with NADPH, read-out: IC50 With preincubation with NADPH): > 100 µM
IC50 (CYP3A4; 15 min preincubation without NADPH, read-out: IC50 With preincubation Without NADPH): > 100 µM
IC50 (CYP3A4; without preincubation, read-out: IC50 Without preincubation): > 100 µM
SMILES: O=c1ccc2c(ccc3ccoc32)o1 [Bakuchicin]
inhibition mechanism on CYP1A in HLMs (CYP1A; listed as bakuchicin): competitive inhibition; also recorded: reversible inhibitor

From publication PMC4763008, “Selective Inhibition of Bakuchicin Isolated from Psoralea corylifolia on CYP1A in Human Liver Microsomes” (Evidence-based Complementary and Alternative Medicine : eCAM, 2016)
